Where two headings read alike, the source gives them in different places.
How the values were obtained:
[1] = Single-dose PK experiment of 2a; details: for concentration at 30 min: intraperitoneal, 20 mg/kg
NfCYP51 = NfCYP51 (Naegleria fowleri, UniProt A0A2H4A2U9); experiment: biochemical; type: binding
[2] = cited from earlier work
[3] = tested on: N. fowleri European KUL strain; experiment: Primary phenotypic organism-based screen at 10 μM (384-well); type: cell-based; details: Naegleria fowleri
[4] = tested on: N. fowleri European KUL strain; experiment: Naegleria cell-based assay, dose–response (CellTiter-Glo viability, 48 h)
Description: The compounds were screened against N. fowleri European KUL strain axenically cultured in Nelson’s medium supplemented with 10% fetal bovine serum at 37 °C.[59] The screening assay in 96- and 384-well formats (Z’-value of 0.95 ± 0.1) was performed as described elsewhere.[9] All the experiments were performed using trophozoites harvested during the logarithmic phase of growth.[60] The primary screen was performed in duplicate at 10 μM in a 384-well format (2,500 amoebae/well). The dose–response curves were generated in triplicate for the follow up compounds by serial dilution of compounds from 50 to 0.39 μM in a 96-well plate with 10,000 amoebae/well. Assay plates were incubated for 48 h at 37 °C, and cell viability was determined by a CellTiter-Glo Luminescent Cell Viability Assay.[9],[58]

in vivo = details: female, C57BL/6, mouse, ip, 40 mg/kg
Description: All mice were maintained on a 12 h light/dark cycle in a temperature-controlled environment with access to food and water ad libitum. […] Mice were sacrificed 1 h following the drug administration, and blood and brain samples were collected. Blood (100 μL) was quickly added with 5-fold H2O/CH3CN 8:2, centrifugated to 2500 rpm for 15 min, and plasma was collected. Brain was homogenized in 0.5 mL of distilled water and added with 2 mL of CH3CN. Thus, homogenates were centrifugated to 2500 rpm for 15 min and the supernatants were collected. Plasma and brain supernatants were stored at −20 °C until analysis.
All experiments involving animals were carried out according to Sapienza University’s Ethics Committee, approval code 890/2021-PR, approved on 17 November 2021. Animal care followed the IASP and European Community (EC L358/1, 18/12/86) guidelines on using and protecting animals in experimental research. Eight week-old female C57BL/6 mice were used for the experiments (Charles River, Lecco, Italy).
The targeted analysis was performed by a Waters system composed of a 1525 μ HPLC (Milford, MA, USA), coupled with a Quattro Micro Tandem MS/MS with an ESI source (Micromass, Manchester UK), using a Supelco Ascentis Express C18 (15 cm × 2.1 mm) 2.7 μm analytical column, A (deionized water/formic acid 0.02%) and B (acetonitrile/formic acid 0.02%) as mobile phase, with the following optimized elution binary gradient with linear interpolation: 0–1 min, 30% B; 1–16 min, 45% B; 16–17 min, 45% B; 17–18 min, 30% B; 18–38 min, 30% B to equilibrate the column, flow rate 0.20 mL min^–1. […] Data acquisition, data handling, and instrument control were performed by MassLynx Software 4.1 v (Data Handling System for Windows, Micromass, UK).
Calibration curves were calculated with equal weighted least-squares linear regression analysis of the MRM peak area against the standard nominal concentration. […] The matrix effect (ME) for each compound, in brain (B) and in plasma (P), was evaluated by comparing the matrix-matching calibration curve (2.5, 10, 25, and 50 ng mL^–1) with the corresponding calibration curve.[65]
The biological samples were appropriately diluted with the mobile phase (A:B, 70:30, v:v), filtered at 0.22 μm, and analyzed in triplicate (25 μL injected).

Naegleria = details: mouse model of PAM, 20 mg/kg dose; cited from earlier work
[5] = tested on: N. fowleri European KUL strain; details: amoebicidal effect; cited from earlier work
[6] = 10 µM, supplement CSV, read-out: % Inhibition at 10 µM against N. fowleri KUL strain
[7] = Table S1, mean of two biological duplicates, read-out: % Inhibition at 10 µM
[8] = 0.5 μM NfCYP51, inhibitor 0.025–0.5 μM, ≤ values estimated from linear dependence of binding, read-out: KD
[9] = concentration for 50% growth inhibition from dose–response curves, triplicate, axenically cultured N. fowleri trophozoites
[10] = average brain distribution coefficient (brain/plasma ratio)

Sequence of NfCYP51 (A0A2H4A2U9 entry or part of it): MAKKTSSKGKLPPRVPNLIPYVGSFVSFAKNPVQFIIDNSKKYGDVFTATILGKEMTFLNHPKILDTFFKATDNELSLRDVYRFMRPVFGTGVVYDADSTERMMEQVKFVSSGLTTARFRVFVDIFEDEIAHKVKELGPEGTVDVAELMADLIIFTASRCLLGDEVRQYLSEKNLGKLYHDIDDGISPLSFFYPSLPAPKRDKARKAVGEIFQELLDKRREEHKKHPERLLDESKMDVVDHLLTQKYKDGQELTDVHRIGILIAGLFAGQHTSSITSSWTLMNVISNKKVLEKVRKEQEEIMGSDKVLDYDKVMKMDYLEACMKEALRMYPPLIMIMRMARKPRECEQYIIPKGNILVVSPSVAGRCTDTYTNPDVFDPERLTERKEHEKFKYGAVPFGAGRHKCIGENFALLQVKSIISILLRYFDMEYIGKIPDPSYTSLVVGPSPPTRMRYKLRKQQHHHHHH

SMILES | inhibition at 10 µM [3, 6] [%] | inhibition at 10 µM [3, 7] [%] | Kd (NfCYP51; [8]) [µM] | EC50 [4, 9] [µM] | further results
O=C(O)c1cccc(C(F)(F)F)c1 [3-trifluoro benzoic acid] |  |  |  |  | circulating metabolite of 2a ([1]; after 2a 20 mg/kg intraperitoneally): one of the main circulating metabolites for up to 24 h
Clc1ccc(COC(Cn2ccnc2)c2ccc(Cl)cc2Cl)c(Cl)c1 (centres unmarked) [Compound 1, miconazole] |  |  |  |  | Kd (NfCYP51): ≤ 0.005 µM; elimination half-life [2]: 24 h
O=C(OC(Cn1ccnc1)c1ccc(F)cc1)c1cccc(C(F)(F)F)c1 (centres unmarked) [Compound 2a] | 51.5 ± 13.4 | 51.5 ± 13.4 | 0.088 ± 0.004 |  | concentration at 30 min ([1]; brain): 100 ng/g; concentration at 30 min ([1]; plasma): 4 ng/mL; inhibition at 10 µM ([3]; read-out: % inhibition at 10 μM, 10 μM, N. fowleri KUL strain): ~50%
O=C(OC(Cn1ccnc1)c1ccccc1)c1cccc(C(F)(F)F)c1 (centres unmarked) [Compound 2c] | 53.5 ± 6.4 | 53.5 ± 6.4 |  |  | 
O=C(Nc1ccc(N2CCN(c3ccc(Cl)cc3)CC2)cc1)OC(Cn1ccnc1)c1ccc(F)cc1 (centres unmarked) [Compound 2d] | 66.5 ± 3.5 | 66.5 ± 3.5 |  |  | 
COc1ccc(CC(c2ccc(OC)cc2)n2ccnc2)cc1 (centres unmarked) [Compound 2e] | 49.5 ± 6.4 | 49.5 ± 6.4 |  |  | 
COc1ccc(C(Cc2ccc(Cl)cc2)n2ccnc2)cc1 (centres unmarked) [Compound 2f] | 54.5 ± 0.7 | 54.5 ± 0.7 |  |  | 
Clc1ccc(C(c2ccn(-c3ccc(Cl)cc3)c2)n2ccnc2)cc1 (centres unmarked) [Compound 2g] | 47 ± 7.1 | 47 ± 7.1 |  |  | 
Clc1ccc(-n2ccc(C(c3ccccc3)n3ccnc3)c2)cc1 (centres unmarked) [Compound 2h] | 49 ± 9.9 | 49 ± 9.9 |  |  | 
COc1ccc(C(Cc2ccc(-n3cccc3)cc2)n2ccnc2)cc1 (centres unmarked) [Compound 2i] | 37.5 ± 30.4 | 37.5 ± 30.4 |  |  | 
COc1ccc([C@H](Cn2ccnc2)OC(=O)c2cccc(C(F)(F)F)c2)cc1 [Compound 3a, (R)-2-(1H-Imidazol-1-yl)-1-(4-methoxyphenyl)ethyl 3-(Trifluoromethyl)benzoate] |  |  |  |  | inhibition at 50 µM ([4]; read-out: % inhibition at 50 μM): 69%
COc1ccc([C@@H](Cn2ccnc2)OC(=O)c2cccc(C(F)(F)F)c2)cc1 [Compound 3b, (S)-2-(1H-Imidazol-1-yl)-1-(4-methoxyphenyl)ethyl 3-(Trifluoromethyl)benzoate] |  |  |  | 24 ± 0.9 | EC50 ([4]; supplement CSV): 24.8 ± 0.9 µM
O=C(O[C@@H](Cn1ccnc1)c1ccc(F)cc1)c1cc(Cl)cc(Cl)c1 [Compound 4a, (R)-1-(4-Fluorophenyl)-2-(1H-imidazol-1-yl)ethyl 3,5-Dichlorobenzoate] |  |  |  | 21.5 ± 0.04 | 
O=C(O[C@H](Cn1ccnc1)c1ccc(F)cc1)c1cc(Cl)cc(Cl)c1 [Compound 4b, (S)-1-(4-Fluorophenyl)-2-(1H-imidazol-1-yl)ethyl 3,5-Dichlorobenzoate] |  |  |  | 4.8 ± 0.05 | 
O=C(O[C@@H](Cn1ccnc1)c1ccc(Cl)cc1Cl)c1cccc(C(F)(F)F)c1 [Compound 5a, (R)-1-(2,4-Dichlorophenyl)-2-(1H-imidazol-1-yl)ethyl 3-(Trifluoromethyl)benzoate] |  |  | 0.161 ± 0.008 | 10.2 ± 0.03 | 
O=C(O[C@H](Cn1ccnc1)c1ccc(Cl)cc1Cl)c1cccc(C(F)(F)F)c1 [Compound 5b, (S)-1-(2,4-Dichlorophenyl)-2-(1H-imidazol-1-yl)ethyl 3-(Trifluoromethyl)benzoate] |  |  | 0.07 ± 0.002 | 4.3 ± 0.05 | 
O=C(O[C@H](Cn1ccnc1)c1ccc(Cl)cc1Cl)c1ccc(Cl)cc1Cl [Compound 6b, (S)-1-(2,4-Dichlorophenyl)-2-(1H-imidazol-1-yl)ethyl 2,4-Dichlorobenzoate] |  |  | ≤ 0.005 | 2.6 ± 0.03 | 
O=C(O[C@H](Cn1cncn1)c1ccc(F)cc1)c1cccc(C(F)(F)F)c1 [Compound 7, (S)-1-(4-Fluorophenyl)-2-(1H-1,2,4-triazol-1-yl)ethyl 3-(Trifluoromethyl)benzoate] |  |  | 0.087 ± 0.01 | 20.6 ± 0.04 | 
Fc1ccc([C@@H](Cn2ccnc2)OCc2cc(Cl)cc(Cl)c2)cc1 [Compound 8b, (S)-1-(2-((3,5-Dichlorobenzyl)oxy)-2-(4-fluorophenyl)ethyl)-1H-imidazole] |  |  | 0.007 ± 0.002 | 2.4 ± 0.04 | brain/plasma (B/P) (in vivo; 1 h): 0.35; Kp at 1 h (in vivo; [10]): 0.43 ± 0.08; Kp at 1 h (in vivo; brain/plasma (B/P)): 0.51
FC(F)(F)c1cccc(CO[C@H](Cn2ccnc2)c2ccc(Cl)cc2Cl)c1 [Compound 9b, (S)-1-(2-(2,4-Dichlorophenyl)-2-((3-(trifluoromethyl)benzyl)oxy)ethyl)-1H-imidazole] |  |  | ≤ 0.005 | 1.5 ± 0.02 | average brain distribution coefficient (brain/plasma ratio) (in vivo; 1 h): ~1; brain/plasma (B/P) (in vivo; 1 h): 1.14; Kp at 1 h (in vivo; [10]): 1.02 ± 0.12; Kp at 1 h (in vivo; brain/plasma (B/P)): 0.89
Clc1cc(Cl)cc(CO[C@H](Cn2ccnc2)c2ccc(Cl)cc2Cl)c1 [Compound 10b, (S)-1-(2-((3,5-Dichlorobenzyl)oxy)-2-(2,4-dichlorophenyl)ethyl)-1H-imidazole] |  |  | ≤ 0.005 | 3.5 ± 0.01 | 
OC(Cn1cncn1)(Cn1cncn1)c1ccc(F)cc1F [Fluconazole, fluconazole, reference compound] |  |  | 0.141 ± 0.021 |  | 
CC[C@@H]([C@H](C)O)n1ncn(-c2ccc(N3CCN(c4ccc(OC[C@@H]5CO[C@@](Cn6cncn6)(c6ccc(F)cc6F)C5)cc4)CC3)cc2)c1=O [Posaconazole] |  |  |  |  | mice cured (Naegleria): two of six mice cured; EC50 [5]: ≤ 0.01 µM
CCC(C)n1ncn(-c2ccc(N3CCN(c4ccc(OCC5COC(Cn6cncn6)(c6ccc(Cl)cc6Cl)O5)cc4)CC3)cc2)c1=O (centres unmarked) [itraconazole] |  |  |  |  | EC50 [5]: ≤ 0.01 µM

Source: paper PMC10758121, “Miconazole-like Scaffold is a Promising Lead for Naegleria fowleri-Specific CYP51 Inhibitors” (Journal of Medicinal Chemistry, 2023)
